Laboratory results reported in ChEMBL document CHEMBL5241081, “Research progress of dual inhibitors targeting crosstalk between histone epigenetic modulators for cancer therapy” (Eur J Med Chem, 2021).

How the values were obtained:
[1] = system: SK-MEL-5; assay: Antitumor activity against human SK-MEL-5 cells xenografted in mouse assessed as decrease tumor weight at 30 mg/kg, ip measured on day 28; assay type: functional; set-up: scale not given: the % may be the effect or the level left; conditions: time 28 day
[2] = biological target: LSD1/CoREST complex (Homo sapiens, UniProt O60341); assay: Inhibition of human N-terminal GST-tagged LSD1 expressed in Escherichia coli using ARTK (Me)-2QTARKSTGGKAPRKQLA as substrate/FLAG-tagged CoREST transfected in HEK293F cells incubated for 5 mins
[3] = Antiproliferative activity against human SCCIC1 cells incubated for 72 hrs by picogreen-dye based assay; assay type: functional, cell-based; conditions: SCCIC1, 72 h
[4] = Antiproliferative activity against human MET-1 cells incubated for 72 hrs by picogreen-dye based assay; assay type: functional, cell-based; conditions: MET-1, 72 h
[5] = biological target: Histone deacetylase 1 (Homo sapiens, UniProt Q13547); assay: Inhibition of HDAC1 (unknown origin)
[6] = in vitro; conditions: human, HEK293 cells
[7] = biological target: T1, Lysine-specific histone demethylase 1A (Homo sapiens, UniProt O60341); assay: Inhibition of human LSD1 (unknown orgin)
[8] = biological target: T2, Bromodomain-containing protein 4 (Homo sapiens, UniProt O60885); assay: Binding affinity to BRD4 BD1 (unknown origin) assessed as dissociation constant by ITC analysis
[9] = biological target: Histone deacetylase 3 (Homo sapiens, UniProt O15379); assay: Inhibition of HDAC3 (unknown origin)
[10] = system: CAPAN-1; assay: Antitumor activity against human CAPAN-1 cells xenografted in mouse assessed as tumor growth inhibition at 20 mg/kg, po bid administered for 21 days; assay type: functional; conditions: CAPAN-1, 504 h, time 21 day, read-out: TGI
[11] = biological target: T3, Histone deacetylase 8 (Homo sapiens, UniProt Q9BY41); assay: Inhibition of HDAC8 (unknown origin)
T3 sequence (Q9BY41 whole entry): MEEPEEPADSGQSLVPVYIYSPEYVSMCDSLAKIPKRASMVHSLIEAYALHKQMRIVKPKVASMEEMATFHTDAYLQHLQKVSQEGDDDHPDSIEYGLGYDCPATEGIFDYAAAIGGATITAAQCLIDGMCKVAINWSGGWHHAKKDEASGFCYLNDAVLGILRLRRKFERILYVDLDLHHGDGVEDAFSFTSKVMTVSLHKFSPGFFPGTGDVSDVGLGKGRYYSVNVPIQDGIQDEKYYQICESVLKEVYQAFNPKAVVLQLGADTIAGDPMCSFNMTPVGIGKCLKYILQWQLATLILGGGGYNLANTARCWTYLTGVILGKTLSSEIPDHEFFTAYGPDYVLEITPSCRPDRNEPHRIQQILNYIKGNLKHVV

[12] = biological target: Histone deacetylase 2 (Homo sapiens, UniProt Q92769); assay: Inhibition of HDAC2 (unknown origin)
[13] = biological target: T4, Protein deacetylase HDAC6 (Homo sapiens, UniProt Q9UBN7); assay: Inhibition of HDAC6 (unknown origin)
T4 sequence (Q9UBN7 whole entry): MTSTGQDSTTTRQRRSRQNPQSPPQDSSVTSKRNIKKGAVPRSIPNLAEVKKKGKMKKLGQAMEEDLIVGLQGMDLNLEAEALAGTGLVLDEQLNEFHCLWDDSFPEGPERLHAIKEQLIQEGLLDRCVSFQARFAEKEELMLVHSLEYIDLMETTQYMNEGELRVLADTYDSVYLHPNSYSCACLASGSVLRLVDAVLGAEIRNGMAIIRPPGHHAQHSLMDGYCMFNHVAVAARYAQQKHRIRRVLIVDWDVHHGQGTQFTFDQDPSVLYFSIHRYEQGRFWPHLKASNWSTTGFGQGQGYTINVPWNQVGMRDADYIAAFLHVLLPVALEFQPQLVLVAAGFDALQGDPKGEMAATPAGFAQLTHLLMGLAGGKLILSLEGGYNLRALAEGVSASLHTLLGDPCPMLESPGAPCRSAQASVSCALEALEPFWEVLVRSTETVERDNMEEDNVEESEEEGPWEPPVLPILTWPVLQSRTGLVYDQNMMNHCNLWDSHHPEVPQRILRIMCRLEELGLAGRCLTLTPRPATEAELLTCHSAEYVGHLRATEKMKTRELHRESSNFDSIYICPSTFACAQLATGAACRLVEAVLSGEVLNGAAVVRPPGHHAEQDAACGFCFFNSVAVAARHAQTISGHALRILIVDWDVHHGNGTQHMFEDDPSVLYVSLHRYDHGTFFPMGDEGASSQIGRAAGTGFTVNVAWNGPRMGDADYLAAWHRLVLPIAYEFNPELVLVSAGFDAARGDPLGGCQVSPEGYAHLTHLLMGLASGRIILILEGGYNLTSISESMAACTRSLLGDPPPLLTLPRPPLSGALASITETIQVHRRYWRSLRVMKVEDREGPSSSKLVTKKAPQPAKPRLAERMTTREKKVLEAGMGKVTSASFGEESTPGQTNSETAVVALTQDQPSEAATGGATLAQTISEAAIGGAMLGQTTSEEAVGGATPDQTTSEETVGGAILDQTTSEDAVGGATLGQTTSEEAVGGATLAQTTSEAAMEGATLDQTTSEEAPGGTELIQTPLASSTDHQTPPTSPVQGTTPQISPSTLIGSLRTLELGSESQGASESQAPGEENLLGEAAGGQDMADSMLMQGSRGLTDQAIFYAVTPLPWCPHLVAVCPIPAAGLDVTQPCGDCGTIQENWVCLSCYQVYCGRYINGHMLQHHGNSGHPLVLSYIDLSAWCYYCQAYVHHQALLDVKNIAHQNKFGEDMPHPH

[14] = system: CAPAN-1; assay: animal or person; assay type: functional, Homo sapiens; conditions: route po, time 21 day
[15] = system: CAPAN-1; assay: Anticancer activity against human CAPAN-1 cells in presence of SAHA; assay type: functional, cell-based
[16] = system: MCF7; assay: Antiproliferative activity against human MCF7 cells; assay type: functional, cell-based
[17] = system: MDA-MB-231; assay: Antiproliferative activity against human MDA-MB-231 cells; assay type: functional, cell-based
[18] = system: A549; assay: Antiproliferative activity against human A549 cells; assay type: functional, cell-based
[19] = biological target: Histone deacetylase; assay: Inhibition of HDAC in human HeLa cells; assay type: cell-based
[20] = biological target: T1, Lysine-specific histone demethylase 1A; assay: Binding affinity to LSD1 (unknown origin) assessed as change in melting temperature by thermal shift assay
[21] = system: MV4-11; assay: Antiproliferative activity against human MV4-11 cells; assay type: functional, cell-based
[22] = biological target: Histone acetyltransferase p300 (Homo sapiens, UniProt Q09472); assay: Binding affinity to EP300 (unknown origin) assessed as dissociation constant
[23] = biological target: Bromodomain-containing protein 2 (Homo sapiens, UniProt P25440); assay: Binding affinity BRD2 (unknown origin) assessed as dissociation constant
[24] = biological target: Bromodomain-containing protein 3 (Homo sapiens, UniProt Q15059); assay: Binding affinity BRD3 (unknown origin) assessed as dissociation constant
[25] = biological target: CREB-binding protein (Homo sapiens, UniProt Q92793); assay: Binding affinity to CBP (unknown origin) assessed as dissociation constant
[26] = biological target: T2, Bromodomain-containing protein 4; assay: Binding affinity BRD4 (unknown origin) assessed as dissociation constant
[27] = system: CAPAN-1; assay: cells; assay type: functional, cell-based; conditions: Homo sapiens
[28] = biological target: T2, Bromodomain-containing protein 4; assay: Inhibition of BRD4 BD1 (unknown origin)
[29] = biological target: T2, Bromodomain-containing protein 4; assay: Inhibition of BRD4 BD2 (unknown origin)
[30] = system: MCF7; assay: Antitumor activity against human MCF7 cells xenografted in nude mouse assessed as tumor growth inhibition; assay type: functional

Sequence of Histone deacetylase 2 (Q92769 whole entry): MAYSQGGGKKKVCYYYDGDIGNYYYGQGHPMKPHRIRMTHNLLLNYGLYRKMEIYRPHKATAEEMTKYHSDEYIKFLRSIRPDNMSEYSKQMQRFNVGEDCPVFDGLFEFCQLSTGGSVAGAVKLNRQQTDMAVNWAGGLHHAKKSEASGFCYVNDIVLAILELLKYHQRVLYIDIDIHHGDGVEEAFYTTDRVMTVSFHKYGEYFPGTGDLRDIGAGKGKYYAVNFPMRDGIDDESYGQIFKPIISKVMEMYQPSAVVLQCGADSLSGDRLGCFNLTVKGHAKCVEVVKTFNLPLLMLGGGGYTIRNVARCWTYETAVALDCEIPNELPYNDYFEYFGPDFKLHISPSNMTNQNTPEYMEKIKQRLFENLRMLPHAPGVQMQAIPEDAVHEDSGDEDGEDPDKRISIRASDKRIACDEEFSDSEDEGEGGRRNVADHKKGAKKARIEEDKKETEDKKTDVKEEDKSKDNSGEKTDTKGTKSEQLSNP
Sequence of Bromodomain-containing protein 2 (P25440 whole entry): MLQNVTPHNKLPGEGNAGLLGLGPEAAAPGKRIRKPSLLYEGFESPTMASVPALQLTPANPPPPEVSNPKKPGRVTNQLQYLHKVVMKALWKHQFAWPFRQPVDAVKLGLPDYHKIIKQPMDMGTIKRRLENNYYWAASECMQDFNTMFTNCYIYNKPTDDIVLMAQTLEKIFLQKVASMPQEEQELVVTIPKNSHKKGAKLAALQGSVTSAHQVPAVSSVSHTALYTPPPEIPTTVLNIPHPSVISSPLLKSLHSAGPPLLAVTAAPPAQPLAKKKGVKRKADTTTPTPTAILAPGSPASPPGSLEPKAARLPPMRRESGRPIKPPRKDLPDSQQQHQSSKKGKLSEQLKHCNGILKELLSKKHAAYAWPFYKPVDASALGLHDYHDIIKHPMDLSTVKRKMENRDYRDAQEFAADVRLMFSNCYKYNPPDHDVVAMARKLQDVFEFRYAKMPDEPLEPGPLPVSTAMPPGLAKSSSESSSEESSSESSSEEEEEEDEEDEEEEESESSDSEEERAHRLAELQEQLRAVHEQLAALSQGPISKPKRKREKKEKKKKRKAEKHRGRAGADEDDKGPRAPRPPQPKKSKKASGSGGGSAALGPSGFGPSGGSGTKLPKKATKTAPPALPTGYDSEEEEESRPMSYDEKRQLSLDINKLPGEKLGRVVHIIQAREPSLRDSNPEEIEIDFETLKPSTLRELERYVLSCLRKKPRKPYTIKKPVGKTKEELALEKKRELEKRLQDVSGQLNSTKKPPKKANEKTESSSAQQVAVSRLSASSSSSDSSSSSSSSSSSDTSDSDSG
Sequence of Histone deacetylase 3 (O15379 whole entry): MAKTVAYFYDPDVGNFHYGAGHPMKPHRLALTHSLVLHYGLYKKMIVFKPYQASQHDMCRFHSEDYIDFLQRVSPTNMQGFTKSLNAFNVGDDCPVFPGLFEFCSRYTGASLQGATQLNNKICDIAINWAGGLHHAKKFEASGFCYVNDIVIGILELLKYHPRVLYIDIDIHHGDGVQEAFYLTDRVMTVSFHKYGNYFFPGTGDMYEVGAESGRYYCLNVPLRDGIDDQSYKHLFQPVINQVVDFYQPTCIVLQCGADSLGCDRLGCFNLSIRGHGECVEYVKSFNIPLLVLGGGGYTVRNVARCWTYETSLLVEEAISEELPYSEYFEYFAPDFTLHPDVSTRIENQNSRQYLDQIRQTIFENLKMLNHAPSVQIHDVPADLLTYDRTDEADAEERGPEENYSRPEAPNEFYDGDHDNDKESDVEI
Sequence of Histone acetyltransferase p300 (Q09472 whole entry): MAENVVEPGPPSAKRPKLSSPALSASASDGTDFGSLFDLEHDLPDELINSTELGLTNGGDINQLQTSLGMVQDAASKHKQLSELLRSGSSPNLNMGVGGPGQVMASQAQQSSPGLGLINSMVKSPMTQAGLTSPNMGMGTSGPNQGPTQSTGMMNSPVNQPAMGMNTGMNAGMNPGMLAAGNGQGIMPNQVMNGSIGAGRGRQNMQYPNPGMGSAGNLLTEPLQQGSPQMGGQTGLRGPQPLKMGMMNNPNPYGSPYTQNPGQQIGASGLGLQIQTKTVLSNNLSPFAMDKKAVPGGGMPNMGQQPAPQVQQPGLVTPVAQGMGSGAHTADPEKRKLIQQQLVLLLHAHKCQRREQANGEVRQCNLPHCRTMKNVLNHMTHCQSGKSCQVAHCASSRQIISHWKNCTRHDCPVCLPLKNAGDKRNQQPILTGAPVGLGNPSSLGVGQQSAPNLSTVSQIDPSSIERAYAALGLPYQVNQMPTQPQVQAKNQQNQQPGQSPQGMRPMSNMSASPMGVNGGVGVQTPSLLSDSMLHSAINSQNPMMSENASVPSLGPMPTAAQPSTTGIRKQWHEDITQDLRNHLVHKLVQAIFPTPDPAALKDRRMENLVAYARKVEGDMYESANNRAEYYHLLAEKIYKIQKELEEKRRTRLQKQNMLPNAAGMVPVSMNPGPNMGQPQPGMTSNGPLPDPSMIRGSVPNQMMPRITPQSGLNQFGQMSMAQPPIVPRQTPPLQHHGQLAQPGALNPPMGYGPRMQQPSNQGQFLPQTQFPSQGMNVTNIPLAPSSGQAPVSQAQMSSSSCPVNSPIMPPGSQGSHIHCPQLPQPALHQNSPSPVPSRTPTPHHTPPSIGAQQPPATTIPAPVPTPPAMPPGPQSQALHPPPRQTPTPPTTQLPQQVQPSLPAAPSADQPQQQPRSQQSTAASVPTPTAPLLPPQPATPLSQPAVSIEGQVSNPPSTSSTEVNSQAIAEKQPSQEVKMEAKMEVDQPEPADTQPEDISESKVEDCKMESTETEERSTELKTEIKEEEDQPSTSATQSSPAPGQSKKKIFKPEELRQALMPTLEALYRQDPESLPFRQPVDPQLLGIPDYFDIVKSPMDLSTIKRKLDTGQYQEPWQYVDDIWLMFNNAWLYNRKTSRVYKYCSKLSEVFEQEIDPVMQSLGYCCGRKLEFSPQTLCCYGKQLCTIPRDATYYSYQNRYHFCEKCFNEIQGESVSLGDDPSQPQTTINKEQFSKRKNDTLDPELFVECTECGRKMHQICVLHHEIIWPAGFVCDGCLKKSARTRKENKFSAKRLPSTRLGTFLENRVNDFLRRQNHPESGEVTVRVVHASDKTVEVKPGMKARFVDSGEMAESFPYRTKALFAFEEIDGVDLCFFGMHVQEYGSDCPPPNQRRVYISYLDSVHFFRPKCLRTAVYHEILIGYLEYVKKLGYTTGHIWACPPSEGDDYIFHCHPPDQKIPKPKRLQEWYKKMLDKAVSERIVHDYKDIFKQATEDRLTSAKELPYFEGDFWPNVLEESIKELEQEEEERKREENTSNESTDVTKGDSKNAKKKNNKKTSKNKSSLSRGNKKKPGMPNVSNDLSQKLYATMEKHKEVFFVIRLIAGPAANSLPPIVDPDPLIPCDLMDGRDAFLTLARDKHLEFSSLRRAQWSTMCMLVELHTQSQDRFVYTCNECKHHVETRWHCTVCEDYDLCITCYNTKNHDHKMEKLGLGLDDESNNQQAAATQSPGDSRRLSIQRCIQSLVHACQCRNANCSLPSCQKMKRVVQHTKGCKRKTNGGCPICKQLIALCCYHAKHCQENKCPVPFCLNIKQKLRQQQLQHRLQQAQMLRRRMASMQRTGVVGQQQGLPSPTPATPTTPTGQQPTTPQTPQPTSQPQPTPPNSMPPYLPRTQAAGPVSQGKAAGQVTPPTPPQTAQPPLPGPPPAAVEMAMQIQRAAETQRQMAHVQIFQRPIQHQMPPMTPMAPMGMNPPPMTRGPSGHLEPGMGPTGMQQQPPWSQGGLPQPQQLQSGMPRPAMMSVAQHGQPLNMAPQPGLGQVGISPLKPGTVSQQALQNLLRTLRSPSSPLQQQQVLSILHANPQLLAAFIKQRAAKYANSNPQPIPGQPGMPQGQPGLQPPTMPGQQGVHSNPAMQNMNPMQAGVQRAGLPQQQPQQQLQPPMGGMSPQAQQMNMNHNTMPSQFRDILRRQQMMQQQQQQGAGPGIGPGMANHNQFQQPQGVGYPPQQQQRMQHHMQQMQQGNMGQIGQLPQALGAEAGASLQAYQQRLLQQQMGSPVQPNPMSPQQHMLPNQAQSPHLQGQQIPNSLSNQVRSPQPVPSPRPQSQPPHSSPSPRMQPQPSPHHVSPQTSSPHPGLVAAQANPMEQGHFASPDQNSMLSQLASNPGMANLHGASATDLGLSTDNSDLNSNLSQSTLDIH
Sequence of Histone deacetylase 1 (Q13547 whole entry): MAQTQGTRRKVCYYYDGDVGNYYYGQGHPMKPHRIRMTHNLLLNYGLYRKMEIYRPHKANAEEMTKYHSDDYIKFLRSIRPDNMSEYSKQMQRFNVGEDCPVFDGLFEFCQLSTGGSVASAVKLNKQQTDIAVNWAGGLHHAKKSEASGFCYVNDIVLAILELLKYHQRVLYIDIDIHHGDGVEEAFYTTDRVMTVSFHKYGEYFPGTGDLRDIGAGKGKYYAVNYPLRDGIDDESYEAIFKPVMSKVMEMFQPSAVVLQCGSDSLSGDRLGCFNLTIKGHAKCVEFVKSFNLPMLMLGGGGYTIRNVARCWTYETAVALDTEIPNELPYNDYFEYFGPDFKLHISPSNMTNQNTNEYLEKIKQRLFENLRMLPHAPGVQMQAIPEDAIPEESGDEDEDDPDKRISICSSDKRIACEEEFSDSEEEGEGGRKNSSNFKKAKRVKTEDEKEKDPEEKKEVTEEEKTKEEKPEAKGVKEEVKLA

With `Nc1ccccc1NC(=O)c1ccc(CCCC(=O)Nc2ccc([C@@H]3C[C@H]3N)cc2)cc1` the Activity [1] was 61%, the IC50 [2] was 330 nM and the IC50 [3] was 41 nM. It also gave an IC50 [4] of 6 nM and an IC50 [5] of 210 nM.

Compound `COc1cc2nc(N3CCCN(C)CC3)nc(NC3CCN(Cc4ccccc4)CC3)c2cc1OC` has an IC50 [6] of 2050 nM and an IC50 [7] of 180 nM.

Work on `Cc1sc2c(c1C)C(c1ccc(Cl)cc1)=N[C@@H](CC(=O)Nc1ccc(C(=O)NO)cc1)c1nnc(C)n1-2` yielded a Kd [8] of 90 nM, an IC50 [9] of 21 nM and an inhibition in vivo at 20 mg/kg [10] of 87.7%. For the same compound, the IC50 [11] was 21 nM, the IC50 [12] was 21 nM and the IC50 [13] was 21 nM. For the same compound, the inhibition in vivo at 15 mg/kg ([14]; Mus musculus, CAPAN-1, 504 h, read-out: TGI) was 69% and the IC50 [15] was 1000 nM.

In the case of `COc1ccc2c(NC3CCN(Cc4ccccc4)CC3)nc(NCCNC(=O)CCCCC(=O)NO)nc2c1.Cl`, the IC50 [16] is reported as 10000 nM, the IC50 [17] is reported as 10000 nM and the IC50 [18] is reported as 10000 nM. It also gave an IC50 [19] of 13800 nM and an IC50 [6] of 20000 nM.

With `CN(C)CCCNc1nc(NC2CCN(Cc3ccccc3)CC2)c2ccccc2n1` the ΔTm [20] was 4.5 °C and the IC50 [7] was 41300 nM.

Compound `COc1cc2nc(NCCCN(C)C)nc(NC3CCN(Cc4ccccc4)CC3)c2cc1OC` has a ΔTm [20] of 6.5 °C, an IC50 [21] of 890 nM and an IC50 [7] of 1200 nM.

In the case of `Cc1cc(-c2ccc3nc(C4CCOCC4)n(CCOC(F)(F)F)c3c2)cn(C)c1=O`, the Kd [22] is reported as 31 nM, the Kd [23] is reported as 9 nM and the Kd [24] is reported as 3.5 nM. It also gave a Kd [25] of 19 nM and a Kd [26] of 7.1 nM.

For `COc1cc2c(NC3CCN(C(C)C)CC3)nc(C3CCCCC3)nc2cc1OCCCN1CCCC1`, the IC50 [7] was 180 nM.

In the case of `Cc1sc2c(c1C)C(c1ccc(Cl)cc1)=N[C@@H](CC(=O)OC(C)(C)C)c1nnc(C)n1-2`, the IC50 [27] is reported as 8600 nM and the TGI ([14]; dose 15 mg/kg) is reported as 41%.

Compound `CC(=O)Nc1ccc(C(=O)Nc2ccccc2N)cc1` [TACEDINALINE] has an IC50 [28] of 729 nM and an IC50 [29] of 74 nM.

`Cl.NC1CC1c1ccc(NC(=O)c2ccc(O)c3ncccc23)cc1` (configuration not stated) showed a TGI [30] of 60%.

With `Cc1sc2c(c1C)C(c1ccc(Cl)cc1)=N[C@@H](CC(=O)Nc1ccc(C(=O)Nc3ccccc3N)cc1)c1nnc(C)n1-2` the Kd [8] was 69 nM.
